These results are taken from patent publication US20050009840A1 (SUGEN, INC., priority 2003, published 2005).

For one assay, the target named is T1, HGFR (Homo sapiens, UniProt P08581).
T1 construct: purchased Upstate 14-526
T1 sequence (P08581 974-1390 limits assumed): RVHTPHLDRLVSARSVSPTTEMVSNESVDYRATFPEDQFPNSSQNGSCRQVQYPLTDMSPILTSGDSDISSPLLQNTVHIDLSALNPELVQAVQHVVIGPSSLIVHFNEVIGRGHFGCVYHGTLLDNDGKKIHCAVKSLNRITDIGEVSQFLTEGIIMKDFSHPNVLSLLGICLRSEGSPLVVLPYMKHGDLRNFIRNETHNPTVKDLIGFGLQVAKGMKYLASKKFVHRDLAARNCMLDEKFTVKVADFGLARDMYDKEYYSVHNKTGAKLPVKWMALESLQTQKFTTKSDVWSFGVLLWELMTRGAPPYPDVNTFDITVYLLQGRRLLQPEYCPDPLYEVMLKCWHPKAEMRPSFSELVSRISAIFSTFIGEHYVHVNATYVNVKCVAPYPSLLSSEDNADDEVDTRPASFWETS
As to the kind of experiment: HGFR continuous-coupled spectrophotometric assay. Conditions: Table 3, column 'Ki (μM) or I (%)': cells without % sign; read-out: Ki. The assay is classed as biochemical.
One may read the Ki as the equilibrium dissociation constant of an inhibitor or competing ligand from its target. Take `COc1ccc(-c2cnc(N)c(OC(C)c3c(Cl)ccc(F)c3Cl)c2)c(OC)c1` (stereo not drawn) [Example I-557, 3-[1-(2,6-Dichloro-3-fluoro-phenyl)-ethoxy]-5-(2,4-dimethoxy-phenyl)-pyridin-2-ylamine]: the Ki turned out to be 0.217 µM. Still for that read-out and setting: for `CC(Oc1cc(-c2ccc(C(=O)N3C[C@@H](C)N[C@@H](C)C3)c(Cl)c2)cnc1N)c1c(Cl)ccc(F)c1Cl` (stereo partly drawn) [Example I-569, (4-{6-Amino-5-[1-(2,6-dichloro-3-fluoro-phenyl)-ethoxy]-pyridin-3-yl}-2-chloro-phenyl)-((3R,5S)-dimethyl-piperazin-1-yl)-methanone] the value was 0.0478 µM. On to `CC(Oc1cc(-c2ccc(N(C)C)cc2)cnc1N)c1c(Cl)ccc(F)c1Cl` (stereo not drawn) [Example I-645, 3-[1-(2,6-Dichloro-3-fluoro-phenyl)-ethoxy]-5-(4-dimethylamino-phenyl)-pyridin-2-ylamine], for which the inhibition constant (Ki) turned out to be 0.157 µM. On the same count and under the same terms, for `CC(Oc1cc(-c2ccc(C(=O)N3CCNCC3)cc2)cnc1N)c1c(Cl)ccc(F)c1Cl` (stereo not drawn) [Example I-605, (4-{6-Amino-5-[1-(2,6-dichloro-3-fluoro-phenyl)-ethoxy]-pyridin-3-yl}-phenyl)-piperazin-1-yl-methanone] the value was 0.0475 µM; for “(4-{6-Amino-5-[1-(2,6- dichloro-3-fluoro-phenyl)- ethoxy]-pyridin-3-yl}- phenyl)-(4-ethyl-piperizin- 1-yl)-methanone [Example I-633]”, 0.0472 µM.

The same assay, now with this note: at 1 pM; Table 6, library procedure 41; read-out: % Inhibition (percent c-MET inhibition).
The inhibition is the percentage by which the read-out fell short of the control. `Cc1ccn2cc(CNC(=O)c3cnc(N)c(OCc4c(Cl)cccc4Cl)c3)nc2n1` [Example L-345]: the inhibition at 1 pM was found to be 45%. Same read-out and setting: the same measure for `Nc1ncc(C(=O)N2CCN(CC(=O)N3CCCCC3)CC2)cc1OCc1c(Cl)cccc1Cl` [Example L-301]: 24%. Still for that read-out and setting: the same measure for `CC(NC(=O)c1cnc(N)c(OCc2c(Cl)cccc2Cl)c1)c1ccc(O)cc1` [Example L-235]: 36%. Still for that read-out and setting: for `Nc1ncc(C(=O)N[C@@H]2CCC[C@H]2OCc2ccccc2)cc1OCc1c(Cl)cccc1Cl` [Example L-271] the value was 16%; for `N#CCCN1CCN(C(=O)c2cnc(N)c(OCc3c(Cl)cccc3Cl)c2)CC1` [Example L-274], 19%. Turning to `Nc1ncc(C(=O)NCc2noc(C(=O)N3CCC(CO)CC3)n2)cc1OCc1c(Cl)cccc1Cl` [Example L-323], the inhibition at 1 pM is 26%.

As for `Nc1ncc(C(=O)N2CCC3(CC2)COC(CCc2ccnnc2)C3)cc1OCc1c(Cl)cccc1Cl` [Example L-343], the inhibition at 1 pM was determined as 37%.

Consider `COc1ccc(C(CCO)NC(=O)c2cnc(N)c(OCc3c(Cl)cccc3Cl)c2)cc1` [Example L-306], for which the inhibition at 1 pM is 22%. `Nc1ncc(C(=O)NCCCN2CCCC2=O)cc1OCc1c(Cl)cccc1Cl` [Example L-217]: the inhibition at 1 pM came to 34%. In the case of `Nc1ncc(C(=O)NCc2c(F)cccc2C(F)(F)F)cc1OCc1c(Cl)cccc1Cl` [Example L-308], the inhibition at 1 pM turned out to be 33%.

For the compound `Nc1ncc(C(=O)NCCc2cccc(O)c2)cc1OCc1c(Cl)cccc1Cl` [Example L-273], the inhibition at 1 pM came to 17%.

As for `CC(C)CNC(=O)c1ccc(Cl)c(CNC(=O)c2cnc(N)c(OCc3c(Cl)cccc3Cl)c2)c1` [Example L-352], the inhibition at 1 pM was determined as 47%. Still for that read-out and setting: the same measure for `Nc1ncc(C(=O)N2CCn3c(CO)nnc3C2)cc1OCc1c(Cl)cccc1Cl` [Example L-346]: 31%; for `Nc1ncc(C(=O)N2CCNC(=O)C2)cc1OCc1c(Cl)cccc1Cl` [Example L-307]: 22%.

As for `NC(=O)CCNC(=O)c1cnc(N)c(OCc2c(Cl)cccc2Cl)c1` [Example L-253], the inhibition at 1 pM came to 28%. Same read-out and setting: for `Nc1ncc(C(=O)NCC(O)c2ccc(O)cc2)cc1OCc1c(Cl)cccc1Cl` [Example L-251] the value was 29%; for `CC(C)(O)c1ccc(CNC(=O)c2cnc(N)c(OCc3c(Cl)cccc3Cl)c2)cc1` [Example L-289], 24%. The same measure, in the same setting: for `CN(CCC(O)c1ccccc1)C(=O)c1cnc(N)c(OCc2c(Cl)cccc2Cl)c1` [Example L-246] the value was 28%; for `Nc1ncc(C(=O)N2CCN(CCOCCO)CC2)cc1OCc1c(Cl)cccc1Cl` [Example L-202], 33%; for `Nc1ncc(C(=O)N2CCC(Cc3ccc(F)cc3)CC2)cc1OCc1c(Cl)cccc1Cl` [Example L-302], 41%.

The assay is the same for the next values; noted with them: at 1 pM; Table 7, library procedure 42; read-out: % Inhibition (percent c-MET inhibition).
On to `CNC(=O)c1ccc(OC)c(-c2noc(COc3cc(-c4ccc(C(=O)N5CCC(N6CCCC6)CC5)cc4)cnc3N)n2)c1`, for which the inhibition at 1 pM was determined as 11%.

For the compound `CC(C)(C)c1ccc(-c2noc(COc3cc(-c4ccc(C(=O)N5CCC(N6CCCC6)CC5)cc4)cnc3N)n2)cc1`, the inhibition at 1 pM worked out at 36%. The same measure, in the same setting: the same measure for `COC(=O)Nc1cc(COc2cc(-c3ccc(C(=O)N4CCC(N5CCCC5)CC4)cc3)cnc2N)on1`: 18%. Still for that read-out and setting: for `Cn1nc(-c2ccccc2)c(COc2cc(-c3ccc(C(=O)N4CCC(N5CCCC5)CC4)cc3)cnc2N)c1Cl` the value was 63%; for `Nc1ncc(-c2ccc(C(=O)N3CCC(N4CCCC4)CC3)cc2)cc1OCc1cc(Cl)ccc1Cl`, 26%. Same read-out and setting: the same measure for `Nc1ncc(-c2ccc(C(=O)N3CCC(N4CCCC4)CC3)cc2)cc1OCc1c(F)cccc1C(F)(F)F`: 31%. For `Nc1ncc(-c2ccc(C(=O)N3CCC(N4CCCC4)CC3)cc2)cc1OCc1ccc(Cl)cc1Br`, the inhibition at 1 pM was 28%. Same read-out and setting: the same measure for `Nc1ncc(-c2ccc(C(=O)N3CCC(N4CCCC4)CC3)cc2)cc1OCc1nc(CS(=O)(=O)c2ccccn2)no1`: 9%; for `Nc1ncc(-c2ccc(C(=O)N3CCC(N4CCCC4)CC3)cc2)cc1OCc1ccc(C(F)(F)F)cc1C(F)(F)F`: 12%. Turning to `Cn1nc(CC2CC2)nc1COc1cc(-c2ccc(C(=O)N3CCC(N4CCCC4)CC3)cc2)cnc1N`, the inhibition at 1 pM is 7%. `Nc1ncc(-c2ccc(C(=O)N3CCC(N4CCCC4)CC3)cc2)cc1OCc1ccc2ccccc2c1Br`: the inhibition at 1 pM worked out at 59%.

Regarding `COc1ccnc(COc2cc(-c3ccc(C(=O)N4CCC(N5CCCC5)CC4)cc3)cnc2N)c1OC`, the inhibition at 1 pM is 23%. Still for that read-out and setting: the same measure for `Nc1ncc(-c2ccc(C(=O)N3CCC(N4CCCC4)CC3)cc2)cc1OCc1cccc(C(=O)NCCc2ccccn2)c1`: 12%; for `Nc1ncc(-c2ccc(C(=O)N3CCC(N4CCCC4)CC3)cc2)cc1OCc1ccc(C(F)(F)F)nc1`: 13%; for `Nc1ncc(-c2ccc(C(=O)N3CCC(N4CCCC4)CC3)cc2)cc1OCc1ccc(Cl)s1`: 19%.

As to `Nc1ncc(-c2ccc(C(=O)N3CCC(N4CCCC4)CC3)cc2)cc1OCc1cc(Cl)cc(Cl)c1`, the inhibition at 1 pM is 19%. On the same count and under the same terms, the same measure for `Nc1ncc(-c2ccc(C(=O)N3CCC(N4CCCC4)CC3)cc2)cc1OCc1cnc(N)c(N)n1`: 9%. Same read-out and setting: for `Nc1ncc(-c2ccc(C(=O)N3CCC(N4CCCC4)CC3)cc2)cc1OCc1cc(C(F)(F)F)ccc1Cl` the value was 26%.

The assay is the same for the next values; noted with them: at 50 nM; Table 5, library procedure 40; read-out: % inhibition (percent c-MET inhibition).
For `C[C@H](Oc1cc(-c2ccc(C(=O)N[C@H](C)C3CCCCC3)cc2)cnc1N)c1c(Cl)ccc(F)c1Cl` [Example L-83], the inhibition at 0.05 µM was determined as 54%. `COCCN1CCN(C(=O)c2ccc(-c3cnc(N)c(OC(C)c4c(Cl)ccc(F)c4Cl)c3)cc2)CC1` [Example L-135]: the inhibition at 0.05 µM was 76%.

Regarding `CC(C)CNC(=O)c1ccc(-c2cnc(N)c(OC(C)c3c(Cl)ccc(F)c3Cl)c2)cc1` [Example L-117], the inhibition at 0.05 µM is 60%. As to `CC(Oc1cc(-c2ccc(C(=O)NCCc3ccccc3)cc2)cnc1N)c1c(Cl)ccc(F)c1Cl` [Example L-18], the inhibition at 0.05 µM was 66%. On the same count and under the same terms, the same measure for `CC(Oc1cc(-c2ccc(C(=O)NC3CCN(Cc4ccccc4)C3)cc2)cnc1N)c1c(Cl)ccc(F)c1Cl` [Example L-17]: 76%.

For `CCN1CCCC1CNC(=O)c1ccc(-c2cnc(N)c(OC(C)c3c(Cl)ccc(F)c3Cl)c2)cc1` [Example L-30], the inhibition at 0.05 µM was 80%. Same read-out and setting: the same measure for `CC(Oc1cc(-c2ccc(C(=O)NCc3ccc(OC(F)(F)F)cc3)cc2)cnc1N)c1c(Cl)ccc(F)c1Cl` [Example L-77]: 54%; for `CC(Oc1cc(-c2ccc(C(=O)N3CCC(CO)CC3)cc2)cnc1N)c1c(Cl)ccc(F)c1Cl` [Example L-141]: 79%.

Take `CC(Oc1cc(-c2ccc(C(=O)NCC(C)(C)C)cc2)cnc1N)c1c(Cl)ccc(F)c1Cl` [Example L-72]: the inhibition at 0.05 µM amounted to 62%. On the same count and under the same terms, the same measure for `CC(Oc1cc(-c2ccc(C(=O)N(C)C3CCN(C)CC3)cc2)cnc1N)c1c(Cl)ccc(F)c1Cl` [Example L-32]: 92%.

Still in this assay, the particulars now being: at 1 μM; Table 8, library procedure 43; read-out: % Inhibition (percent c-MET inhibition).
Consider `CC1CN(C(=O)c2ccc(-c3cnc(N)c(OCc4cccc(Oc5ccccc5)c4)c3)cc2)CC(C)N1` (stereo not drawn), for which the inhibition at 1 µM came to 32%. Regarding `CCOC(=O)C1CCN(C(=O)c2ccc(COc3cc(-c4ccc(C(=O)N5CC(C)NC(C)C5)cc4)cnc3N)cc2)CC1` (stereo not drawn), the inhibition at 1 µM came out at 12%. Same read-out and setting: the same measure for `Cc1nc(COc2cc(-c3ccc(C(=O)N4CC(C)NC(C)C4)cc3)cnc2N)n(C)n1` (stereo not drawn): 13%; for `CC1CN(C(=O)c2ccc(-c3cnc(N)c(OCc4cc(-c5c(Cl)cccc5Cl)no4)c3)cc2)CC(C)N1` (stereo not drawn): 16%. Still for that read-out and setting: for `CC1CN(C(=O)c2ccc(-c3cnc(N)c(OCc4ccc(C#N)cc4)c3)cc2)CC(C)N1` (stereo not drawn) the value was 13%.

Still in this assay, the particulars now being: cells prefixed Ki; read-out: Met Ki.
Turning to `CC(Oc1cc(C#CC(=O)NC2CCCCC2)cnc1N)c1c(Cl)ccc(F)c1Cl` (stereo not drawn) [Example I-439, 3-{6-Amino-5-[1-(2,6-dichloro-3-fluoro-phenyl)-ethoxy]-pyridin-3-yl}-propynoic acid cyclohexylamide], the Ki was 0.46 µM. Same read-out and setting: the same measure for `COC(=O)COc1ccc(-c2cnc(N)c(OC(C)c3c(Cl)ccc(F)c3Cl)c2)cc1` (stereo not drawn) [Example I-475, (4-{6-Amino-5-[1-(2,6-dichloro-3-fluoro-phenyl)-ethoxy]-pyridin-3-yl}-phenoxy)-acetic acid methyl ester]: 0.2 µM.
